Structures can show the parent of a compound that is named as a salt. Where two headings read alike, the source gives them in different places.
Target: T1, OR51E1 olfactory receptor (Homo sapiens, UniProt Q8TCB6)
T1 construct: expressed in transfected cells
T1 sequence (Q8TCB6 1-318): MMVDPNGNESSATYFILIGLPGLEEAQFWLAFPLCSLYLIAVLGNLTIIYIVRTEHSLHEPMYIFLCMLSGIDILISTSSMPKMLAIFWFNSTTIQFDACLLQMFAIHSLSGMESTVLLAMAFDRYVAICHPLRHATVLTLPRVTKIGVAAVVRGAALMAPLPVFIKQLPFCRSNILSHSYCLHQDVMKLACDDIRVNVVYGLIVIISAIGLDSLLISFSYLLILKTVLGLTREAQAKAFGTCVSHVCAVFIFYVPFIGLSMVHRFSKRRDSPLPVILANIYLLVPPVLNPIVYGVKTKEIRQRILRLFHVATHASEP
Experiment: Butyric acid olfactory receptor antagonist cell-based dose-response vs butyric acid EC80
Details: for Emax: read-out: Inhibition (%)

IC50 (Table 20, spiro analogues) [µM]	Emax (Table 20, spiro analogues) [%]	also measured	Molecule
> 600	–	Inhibition(%) (Table 20, spiro analogues): 121%	3,10,10-trimethylspiro[5.5]undec-3-en-11-ol; 4,10,10-trimethylspiro[5.5]undec-3-en-11-ol
48.5	106	–	CC(=O)OC1C(C)(C)CCCC12CC=CC2C (stereo not shown) [(4,9,9-trimethylspiro[4.5]dec-2-en-10-yl) acetate]
75.7	37	–	C=C1C(C)(C)CCCC12CC1(C)OC1(C)C2 (stereo not shown) [1,1′,1′,5-tetramethyl-2′-methylidenespiro[6-oxabicyclo[3.1.0]hexane-3,3′-cyclohexane]]
337	105	–	COC1C(C)(C)CCC12CCCC2 (stereo not shown) [4-methoxy-3,3-dimethylspiro[4.4]nonane]
–	–	IC50 (Table 21): 60.8 µM; Inhibition(%) (Table 21): 27%	CC(=O)OCC1(C)C(C)C(C)C23CCC(CC12)C3 (stereo not shown)
242	101	–	CC(=O)OC(C1C(C)CC(C)CC1C)C(C)(C)C (stereo not shown) [[2,2-dimethyl-1-(2,4,6-trimethylcyclohexyl)propyl] acetate]
51.7	82	–	C=C(C)CC1(CC(=C)C)CCC(C)(C)C1=O [2,2-dimethyl-5,5-bis(2-methylprop-2-enyl)cyclopentan-1-one]
488	107	–	CC(=O)OC1C(C)(C)CCC12CC=CC2 (stereo not shown) [(8,8-dimethylspiro[4.4]non-2-en-9-yl) acetate]
238	100	–	COC1C(C)(C)CCC12CC=CC2 (stereo not shown) [9-methoxy-8,8-dimethylspiro[4.4]non-2-ene]
25.9	69	–	CC1=C(C)CC2(CCCC(C)(C)C2OC=O)C1 (stereo not shown) [(2,3,9,9-tetramethylspiro[4.5]dec-2-en-10-yl) formate]
321	31	–	CC1C=CCC(C)C1C(O)C(C)(C)C (stereo not shown) [1-(2,6-dimethylcyclohex-3-en-1-yl)-2,2-dimethylpropan-1-ol]
198	10	–	CC1=C(C)CC2(CCC(C)(C)C2=O)C1 [2,3,8,8-tetramethylspiro[4.4]non-2-en-9-one]
–	–	Inhibition(%) (Table 21): 81%	CC(=NO)C1(C)C(C)C(C)[C@]23CC[C@H](CC12)C3 (stereo partly shown)
100	61	–	C=CCC1(OC)C(C)CCCC1C (stereo not shown) [1-methoxy-2,6-dimethyl-1-prop-2-enylcyclohexane]
425	39	–	CC(=O)OC1C(C)(C)CCCC12CC(C)(C)C(C)(C)C2 (stereo not shown) [(2,2,3,3,9,9-hexamethylspiro[4.5]decan-10-yl) acetate]
–	–	IC50 (butyric acid at EC80, Table 5): 27.3 µM	C[C@@H]1CCCCCCCCCCCCC(=O)C1 [(−)-(3R)-3-methyl-1-cyclopentadecanone]
–	–	IC50 (Table 21): 76.6 µM; Emax (Table 21): 19%	CC(=NO)C1C(C)C(C)C23CCC(CC12)C3 (stereo not shown)
–	–	IC50 (Table 21): 60.5 µM; Inhibition(%) (Table 21): 26%	CC(=O)C1(C)CC(C)C23CCC(CC12)C3 (stereo not shown)
–	–	Inhibition(%) (Table 20, spiro analogues): 86%	CC(=O)OC(C1CCCCC1C)C(C)(C)C (racemic) [(1RS)-2,2-dimethyl-1-[(1SR,2SR)-2-methylcyclohexyl]propyl acetate]
68.8	52	–	CC1CCCCC12CCCCC2O (stereo not shown) [11-methylspiro[5.5]undecan-5-ol]
76.9	54	–	C[C@H]1CCC[C@]2(CCCC[C@@H]2C)[C@@H]1O
52.6	89	–	CC(=O)OC(C1C(C)C=C(C)CC1C)C(C)(C)C (stereo not shown) [[2,2-dimethyl-1-(2,4,6-trimethylcyclohex-3-en-1-yl)propyl] acetate]
–	–	IC50 (Table 21): 270 µM; Inhibition(%) (Table 21): 28%	CC1C(C)C23CCC(CC2C1(C)C=O)C3 (stereo not shown)
44.1	91	–	CC1(C)CCCC2(CC=CC2)C1O (stereo not shown) [9,9-dimethylspiro[4.5]dec-2-en-10-ol]

IC50 (Table 20, spiro analogues) [µM]	Emax (Table 20, spiro analogues) [%]	also measured	Molecule
71.4	104	–	CC(=O)OC1C(C)(C)CCCC12CC=C(C)CC2C (stereo not shown) [(3,5,10,10-tetramethylspiro[5.5]undec-2-en-11-yl) acetate]
125	110	–	C=C(C)CC1(CC(=C)C)CCCC(C)(C)C1O (stereo not shown) [2,2-dimethyl-6,6-bis(2-methylprop-2-enyl)cyclohexan-1-ol]
–	–	Inhibition(%) (Table 21): 27%	CC(=O)[C@@]1(C)C(C)[C@H](C)[C@@]23CC[C@H](CC12)C3 (stereo partly shown)
35.1	119	–	C=C(C)CC1(CC(=C)C)CCC(C)(C)C1O (stereo not shown) [2,2-dimethyl-5,5-bis(2-methylprop-2-enyl)cyclopentan-1-ol]
268	102	–	CC1C=CCC12CCCC(C)(C)C2=O (stereo not shown) [4,9,9-trimethylspiro[4.5]dec-2-en-10-one]
120	33	–	COC1C(C)(C)CCCC12CC=CC2 (stereo not shown) [10-methoxy-9,9-dimethylspiro[4.5]dec-2-ene]
110	63	–	CC1=CC(C)C2(CCCC(C)(C)C2=O)C1 (stereo not shown) [2,4,9,9-tetramethylspiro[4.5]dec-2-en-10-one]
–	–	IC50 (butyric acid at EC80, Table 5): 184 µM	C/C=C/C(=O)C1=C(C)CCCC1(C)C [(2E)-1-(2,6,6-trimethyl-1-cyclohexen-1-yl)-2-buten-1-one]
–	–	IC50 (Table 21): 97 µM; Inhibition(%) (Table 21): 23%	CC(=O)OC(C)C1CC(C)C23CCC(CC12)C3 (stereo not shown)
44.4	129	–	CC1CC=CCC12CCCC(C)(C)C2OC=O (stereo not shown) [(5,10,10-trimethylspiro[5.5]undec-2-en-11-yl) formate]
90.3	32	–	CC(=O)OC1C(C)(C)CCCC12CC=CC2 (stereo not shown) [(9,9-dimethylspiro[4.5]dec-2-en-10-yl) acetate]
120	12	–	CC1CC2(CCCC(C)(C)C2O)CC1C (stereo not shown) [2,3,9,9-tetramethylspiro[4.5]decan-10-ol]
–	–	IC50 (Table 21): 54.8 µM; Inhibition(%) (Table 21): 34%	CC(=O)OC(C)C1(C)CC(C)C23CCC(CC12)C3 (stereo not shown)
47.2	–	Inhibition(%) (Table 20, spiro analogues): 94%	4,10,10,11-tetramethylspiro[5.5]undec-2-en-11-ol; 5,10,10,11-tetramethylspiro[5.5]undec-3-en-11-ol
366	144	–	CC1=CCC2(CCCCC2O)C(C(C)C)C1 (stereo not shown) [3-methyl-5-propan-2-ylspiro[5.5]undec-2-en-11-ol]
76.4	115	–	C=CCC1(C(C)C=C)CCCC(C)(C)C1=O (stereo not shown) [2-but-3-en-2-yl-6,6-dimethyl-2-prop-2-enylcyclohexan-1-one]
–	–	Inhibition(%) (Table 21): 38%	CC1CC(C)(C=NO)C2C[C@H]3CC[C@]12C3 (stereo partly shown)
117	–	Inhibition(%) (Table 20, spiro analogues): 70%	2,4,8-trimethylspiro[5.5]undec-3-en-11-ol; 2,9,11-trimethylspiro[5.5]undec-9-en-5-ol
135	23	–	CC1(C)CCCC2(CC=CC2)C1=O [9,9-dimethylspiro[4.5]dec-2-en-10-one]
–	–	IC50 (butyric acid at EC80, Table 5): 84.1 µM	COC1CCCCCCCCCCC1 [Methoxycyclododecane]
81.6	22	–	CC1=CC(C)C2(CCCC(C)(C)C2O)C1 (stereo not shown) [2,4,9,9-tetramethylspiro[4.5]dec-2-en-10-ol]
34.8	131	–	CC(=O)OC1C(C)(C)CCCC12CC(C)=CC2C (stereo not shown) [(2,4,9,9-tetramethylspiro[4.5]dec-2-en-10-yl) acetate]
–	–	IC50 (butyric acid at EC80, Table 5): 69.2 µM	CCOCOC1CCCCCCCCCCC1 [(ethoxymethoxy)cyclododecane]
577	–	Inhibition(%) (Table 20, spiro analogues): 38%	methyl 1-(3-methylbut-2-enyl)cyclohex-2-ene-1-carboxylate, methyl 1-(3-methylbut-2-enyl)cyclohex-3-ene-1-carboxylate, or mixtures thereof
